Where two headings read alike, the source gives them in different places.
How the values were obtained:
Myzus persicae [1] = test: Myzus persicae - spray test; assay type: in vivo; conditions: application rate of 500 g/ha, after 6 days, sprayed Chinese cabbage leaf discs infested by all stages, 100% = all aphids killed
Procedure, shortened: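 Chinese cabbage leaf discs infested with all stages of green peach aphid sprayed with compound in acetone/DMF formulation with alkylaryl polyglycol ether emulsifier, diluted in emulsifier-containing water. Efficacy (% aphids killed) assessed after 6 days.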

Myzus persicae [2] = test: Myzus persicae - sachet test; assay type: in vivo; conditions: 100% = all animals killed
Procedure, shortened: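 Active ingredient dissolved with 2% N-methylpyrrolidone and 2% diacetone alcohol, diluted in water, then pipetted into nutrient medium. Plate sealed and paired with a plate carrying green peach aphids. Kill in % scored after the set time (100% = all dead, 0% = none dead).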

[3] = log P determination by LC-MS in the acidic range; assay type: physicochemical; conditions: for log P (acid): LC-MS in the acidic range
Source text: The LC-MS determination in the acidic range is effected at pH 2.7 using 0.1% aqueous formic acid and acetonitrile (contains 0.1% formic acid) as eluents, linear gradient from 10% acetonitrile to 95% acetonitrile. Alternatively, the determination is effected in the acidic range at pH 2.3 using 0.1% aqueous phosphoric acid and acetonitrile as eluents; linear gradient from 10% acetonitrile to 95% acetonitrile.

[4] = application rate of 6 ppm in nutrient medium
[5] = application rate of 30 ppm in nutrient medium

Structure (SMILES): Cc1c(Cl)c(NC(=O)c2cccnc2)nn1Cc1ncccn1 [Compound I-1-212]
- efficacy in % (Myzus persicae [1]): 90%
- efficacy (kill in %) (Myzus persicae [2]; [4]): 100%
- efficacy (kill in %) (Myzus persicae [2]; [5]): 100%
- log P (acid) [3]: 0.94

Structure (SMILES): Cc1cc(N(C)C(=O)c2cccnc2)nn1CC[S+](C)[O-] (stereo not shown) [Compound I-1-186]
- efficacy in % (Myzus persicae [1]): 100%
- efficacy (kill in %) (Myzus persicae [2]; [4]): 100%
- efficacy (kill in %) (Myzus persicae [2]; [5]): 100%
- log P (acid) [3]: 0.16

Structure (SMILES): Cc1cc(NC(=O)c2cccnc2)nn1CC#N [Compound I-1-11]
- efficacy in % (Myzus persicae [1]): 80%
- efficacy (kill in %) (Myzus persicae [2]; [4]): 100%
- efficacy (kill in %) (Myzus persicae [2]; [5]): 100%
- log P (acid) [3]: 0.7

Structure (SMILES): O=C(Nc1ccn(Cc2ncccn2)n1)c1cccnc1 [Compound I-1-9]
- efficacy in % (Myzus persicae [1]): 100%
- efficacy (kill in %) (Myzus persicae [2]; [4]): 100%
- efficacy (kill in %) (Myzus persicae [2]; [5]): 100%
- log P (acid) [3]: 0.42

Structure (SMILES): Cc1cc(NC(=O)c2cccnc2)nn1C(C)C [Compound I-1-49]
- efficacy in % (Myzus persicae [1]): 80%
- efficacy (kill in %) (Myzus persicae [2]; [4]): 100%
- efficacy (kill in %) (Myzus persicae [2]; [5]): 100%
- log P (acid) [3]: 1.4

Structure (SMILES): Cc1cc(NC(=O)c2cccnc2)nn1S(=O)(=O)N(C)C [Compound I-1-231]
- efficacy in % (Myzus persicae [1]): 90%
- efficacy (kill in %) (Myzus persicae [2]; [4]): 100%
- efficacy (kill in %) (Myzus persicae [2]; [5]): 100%
- log P (acid) [3]: 1.52

Structure (SMILES): COCC(C)NC(=O)n1nc(NC(=O)c2cccnc2)cc1C (stereo not shown) [Compound I-1-166]
- efficacy in % (Myzus persicae [1]): 100%
- efficacy (kill in %) (Myzus persicae [2]; [4]): 100%
- efficacy (kill in %) (Myzus persicae [2]; [5]): 100%
- log P (acid) [3]: 1.44

Structure (SMILES): Cc1cc(NC(=O)c2cccnc2)nn1Cc1ncccc1C#N [Compound I-1-20]
- efficacy in % (Myzus persicae [1]): 90%
- efficacy (kill in %) (Myzus persicae [2]; [4]): 100%
- efficacy (kill in %) (Myzus persicae [2]; [5]): 100%
- log P (acid) [3]: 1.08

Structure (SMILES): CSCCn1nc(N(C)C(=O)c2cccnc2)cc1C [Compound I-1-187]
- efficacy in % (Myzus persicae [1]): 90%
- efficacy (kill in %) (Myzus persicae [2]; [4]): 100%
- efficacy (kill in %) (Myzus persicae [2]; [5]): 100%
- log P (acid) [3]: 1.17

Structure (SMILES): O=C(Nc1ccn(CC(F)(F)F)n1)c1cccnc1 [Compound I-1-10]
- efficacy in % (Myzus persicae [1]): 90%
- efficacy (kill in %) (Myzus persicae [2]; [4]): 100%
- efficacy (kill in %) (Myzus persicae [2]; [5]): 100%
- log P (acid) [3]: 1.43

Structure (SMILES): COc1nn(Cn2nc(NC(=O)c3cccnc3)cc2C)c(=O)n1C1CC1 [Compound I-1-144]
- efficacy in % (Myzus persicae [1]): 90%
- efficacy (kill in %) (Myzus persicae [2]; [4]): 100%
- efficacy (kill in %) (Myzus persicae [2]; [5]): 100%
- log P (acid) [3]: 1.27

Structure (SMILES): Cc1cc(NC(=O)c2ccc[n+]([O-])c2)nn1Cc1ncccn1 [Compound I-1-128]
- efficacy in % (Myzus persicae [1]): 90%
- efficacy (kill in %) (Myzus persicae [2]; [4]): 100%
- efficacy (kill in %) (Myzus persicae [2]; [5]): 100%
- log P (acid) [3]: 0.55

Structure (SMILES): CCS(=O)(=O)Cn1nc(NC(=O)c2cccnc2)cc1C [Compound I-1-246, N-{1-[(Ethylsulphonyl)methyl]-5-methyl-1H-pyrazol-3-yl}nicotinamide]
- pest or weed control at 500 g/ha (Myzus persicae [1]; Myzus persicae, foliar, 144 h, read-out: efficacy in %): 100%
- pest or weed control at 6 ppm (Myzus persicae [2]; Myzus persicae, application rate of 6 ppm in nutrient medium, read-out: efficacy (kill in %)): 100%
- pest or weed control at 30 ppm (Myzus persicae [2]; Myzus persicae, application rate of 30 ppm in nutrient medium, read-out: efficacy (kill in %)): 100%
- chromatographic logP ([3]; pH 2.7, LC-MS in the acidic range, read-out: log P (acid)): 0.83
- chromatographic logP ([3]; pH 2.7, values given in the synthesis examples and NMR lists, read-out: HPLC-MS: log P): 0.83

Structure (SMILES): Cc1cc(NC(=O)c2cccnc2)nn1C[S+](C)[O-] (stereo not shown) [Compound I-1-243]
- efficacy in % (Myzus persicae [1]): 100%
- efficacy (kill in %) (Myzus persicae [2]; [4]): 100%
- efficacy (kill in %) (Myzus persicae [2]; [5]): 100%
- log P (acid) [3]: 0.19

Structure (SMILES): O=C(Nc1ccn(Cc2ccccn2)n1)c1cccnc1 [Compound I-1-26]
- efficacy in % (Myzus persicae [1]): 90%
- efficacy (kill in %) (Myzus persicae [2]; [4]): 100%
- efficacy (kill in %) (Myzus persicae [2]; [5]): 100%
- log P (acid) [3]: 0.57

Structure (SMILES): CC[S+]([O-])CCn1nc(NC(=O)c2cccnc2)cc1C (stereo not shown) [Compound I-1-190]
- efficacy in % (Myzus persicae [1]): 100%
- efficacy (kill in %) (Myzus persicae [2]; [4]): 100%
- efficacy (kill in %) (Myzus persicae [2]; [5]): 100%
- log P (acid) [3]: 0.46

Structure (SMILES): Cc1ccn(Cn2nc(NC(=O)c3cccnc3)cc2C)n1 [Compound I-1-192]
- efficacy in % (Myzus persicae [1]): 100%
- efficacy (kill in %) (Myzus persicae [2]; [4]): 100%
- efficacy (kill in %) (Myzus persicae [2]; [5]): 100%
- log P (acid) [3]: 1.16

Structure (SMILES): Cc1cc(NC(=O)c2cccnc2)nn1C(=O)NCC1CCCCO1 (stereo not shown) [Compound I-1-313]
- efficacy in % (Myzus persicae [1]): 90%
- efficacy (kill in %) (Myzus persicae [2]; [4]): 100%
- efficacy (kill in %) (Myzus persicae [2]; [5]): 100%
- log P (acid) [3]: 1.78

Structure (SMILES): Cc1cc(NC(=O)c2cccnc2)nn1C(=O)NCC1COCCO1 (stereo not shown) [Compound I-1-310]
- efficacy in % (Myzus persicae [1]): 100%
- efficacy (kill in %) (Myzus persicae [2]; [4]): 100%
- efficacy (kill in %) (Myzus persicae [2]; [5]): 100%
- log P (acid) [3]: 1.2

Structure (SMILES): Cc1cc(NC(=O)c2cccnc2)nn1CCS(C)(=O)=O [Compound I-1-182]
- efficacy in % (Myzus persicae [1]): 100%
- efficacy (kill in %) (Myzus persicae [2]; [4]): 100%
- efficacy (kill in %) (Myzus persicae [2]; [5]): 100%
- log P (acid) [3]: 0.49

Structure (SMILES): CSCCn1nc(NC(=O)c2cccnc2)cc1C [Compound I-1-184]
- efficacy in % (Myzus persicae [1]): 90%
- efficacy (kill in %) (Myzus persicae [2]; [4]): 100%
- efficacy (kill in %) (Myzus persicae [2]; [5]): 100%
- log P (acid) [3]: 1.22

Structure (SMILES): Cc1nnc(Cn2nc(NC(=O)c3cccnc3)cc2C)s1 [Compound I-1-296]
- efficacy in % (Myzus persicae [1]): 90%
- efficacy (kill in %) (Myzus persicae [2]; [4]): 100%
- efficacy (kill in %) (Myzus persicae [2]; [5]): 100%
- log P (acid) [3]: 0.83

Structure (SMILES): CCn1nc(NC(=O)c2cccnc2)cc1C [Compound I-1-38]
- efficacy in % (Myzus persicae [1]): 100%
- efficacy (kill in %) (Myzus persicae [2]; [4]): 100%
- efficacy (kill in %) (Myzus persicae [2]; [5]): 100%
- log P (acid) [3]: 0.93

Structure (SMILES): Cc1cc(NC(=O)c2cccnc2)nn1Cc1cc(C(=O)O)n(-c2ncccc2Cl)n1 [Compound I-1-156]
- efficacy in % (Myzus persicae [1]): 90%
- efficacy (kill in %) (Myzus persicae [2]; [4]): 100%
- efficacy (kill in %) (Myzus persicae [2]; [5]): 100%
- log P (acid) [3]: 1.18

Structure (SMILES): Cc1c(NC(=O)c2cccnc2)nn(Cc2ncccn2)c1C [Compound I-1-123]
- efficacy in % (Myzus persicae [1]): 90%
- efficacy (kill in %) (Myzus persicae [2]; [4]): 100%
- efficacy (kill in %) (Myzus persicae [2]; [5]): 100%
- log P (acid) [3]: 0.76

Structure (SMILES): Cc1cc(NC(=O)c2cccnc2)nn1CC[S+](C)[O-] (stereo not shown) [Compound I-1-183]
- efficacy in % (Myzus persicae [1]): 90%
- efficacy (kill in %) (Myzus persicae [2]; [4]): 100%
- efficacy (kill in %) (Myzus persicae [2]; [5]): 100%
- log P (acid) [3]: 0.25

Structure (SMILES): C#CCn1nc(NC(=O)c2cccnc2)cc1CC [Compound I-1-40]
- efficacy in % (Myzus persicae [1]): 90%
- efficacy (kill in %) (Myzus persicae [2]; [4]): 100%
- efficacy (kill in %) (Myzus persicae [2]; [5]): 100%
- log P (acid) [3]: 1.31

Structure (SMILES): Cc1cc(NC(=O)c2cccnc2)nn1Cc1ccccc1F [Compound I-1-64]
- efficacy in % (Myzus persicae [1]): 90%
- efficacy (kill in %) (Myzus persicae [2]; [4]): 100%
- efficacy (kill in %) (Myzus persicae [2]; [5]): 100%
- log P (acid) [3]: 1.82

Structure (SMILES): Cc1cc(NC(=O)c2cccnc2)nn1C(=O)NC(C)(C)c1ncccn1 [Compound I-1-335]
- efficacy in % (Myzus persicae [1]): 90%
- efficacy (kill in %) (Myzus persicae [2]; [4]): 100%
- efficacy (kill in %) (Myzus persicae [2]; [5]): 100%
- log P (acid) [3]: 1.67

Structure (SMILES): Cc1cc(NC(=O)c2cccnc2)nn1CC(=O)C1(Cl)CC1 [Compound I-1-260]
- efficacy in % (Myzus persicae [1]): 90%
- efficacy (kill in %) (Myzus persicae [2]; [4]): 100%
- efficacy (kill in %) (Myzus persicae [2]; [5]): 100%
- log P (acid) [3]: 1.38

Structure (SMILES): Cc1cc(NC(=O)c2cccnc2)nn1Cc1nnc(C(C)(C)C)o1 [Compound I-1-281]
- efficacy in % (Myzus persicae [1]): 90%
- efficacy (kill in %) (Myzus persicae [2]; [4]): 80%
- efficacy (kill in %) (Myzus persicae [2]; [5]): 100%
- log P (acid) [3]: 1.44

Structure (SMILES): O=C(Nc1ccn(-c2ncccc2F)n1)c1cccnc1 [Compound I-1-30]
- efficacy in % (Myzus persicae [1]): 90%
- efficacy (kill in %) (Myzus persicae [2]; [4]): 100%
- efficacy (kill in %) (Myzus persicae [2]; [5]): 100%
- log P (acid) [3]: 1.15

Structure (SMILES): Cc1cc(NC(=O)c2cccnc2)nn1S(C)(=O)=O [Compound I-1-277]
- efficacy in % (Myzus persicae [1]): 100%
- efficacy (kill in %) (Myzus persicae [2]; [4]): 100%
- efficacy (kill in %) (Myzus persicae [2]; [5]): 100%
- log P (acid) [3]: 1.03

From patent publication US20160106102A1, “KNOWN AND NEW HETEROCYCLIC COMPOUNDS AS PEST CONTROL AGENTS” (BAYER CROPSCIENCE AKTIENGESELLSCHAFT, priority 2013, published 2016)
